# Experimental data taken from patent US20250144127A1, “LONG-CHAIN COMPOUND AND USE THEREOF” (Burgeon Therapeutics Co., Ltd., priority 2021, published 2025).
# Columns and labels:
# [1] = target: T1, Human-derived ACLY protein (Homo sapiens, UniProt P53396); test: ACLY citrate cleavage enzyme inhibition, ADP-Glo assay; assay type: biochemical; settings: 25 nM enzyme, 30 min, 37° C., read-out: IC50 for inhibition of ACLY enzyme activity (mean ± SD)
# T1 construct: purchased Beijing Yiqiao Shenzhou Technology Co., Ltd 11769-H07B
# T1 sequence (P53396 1-1101): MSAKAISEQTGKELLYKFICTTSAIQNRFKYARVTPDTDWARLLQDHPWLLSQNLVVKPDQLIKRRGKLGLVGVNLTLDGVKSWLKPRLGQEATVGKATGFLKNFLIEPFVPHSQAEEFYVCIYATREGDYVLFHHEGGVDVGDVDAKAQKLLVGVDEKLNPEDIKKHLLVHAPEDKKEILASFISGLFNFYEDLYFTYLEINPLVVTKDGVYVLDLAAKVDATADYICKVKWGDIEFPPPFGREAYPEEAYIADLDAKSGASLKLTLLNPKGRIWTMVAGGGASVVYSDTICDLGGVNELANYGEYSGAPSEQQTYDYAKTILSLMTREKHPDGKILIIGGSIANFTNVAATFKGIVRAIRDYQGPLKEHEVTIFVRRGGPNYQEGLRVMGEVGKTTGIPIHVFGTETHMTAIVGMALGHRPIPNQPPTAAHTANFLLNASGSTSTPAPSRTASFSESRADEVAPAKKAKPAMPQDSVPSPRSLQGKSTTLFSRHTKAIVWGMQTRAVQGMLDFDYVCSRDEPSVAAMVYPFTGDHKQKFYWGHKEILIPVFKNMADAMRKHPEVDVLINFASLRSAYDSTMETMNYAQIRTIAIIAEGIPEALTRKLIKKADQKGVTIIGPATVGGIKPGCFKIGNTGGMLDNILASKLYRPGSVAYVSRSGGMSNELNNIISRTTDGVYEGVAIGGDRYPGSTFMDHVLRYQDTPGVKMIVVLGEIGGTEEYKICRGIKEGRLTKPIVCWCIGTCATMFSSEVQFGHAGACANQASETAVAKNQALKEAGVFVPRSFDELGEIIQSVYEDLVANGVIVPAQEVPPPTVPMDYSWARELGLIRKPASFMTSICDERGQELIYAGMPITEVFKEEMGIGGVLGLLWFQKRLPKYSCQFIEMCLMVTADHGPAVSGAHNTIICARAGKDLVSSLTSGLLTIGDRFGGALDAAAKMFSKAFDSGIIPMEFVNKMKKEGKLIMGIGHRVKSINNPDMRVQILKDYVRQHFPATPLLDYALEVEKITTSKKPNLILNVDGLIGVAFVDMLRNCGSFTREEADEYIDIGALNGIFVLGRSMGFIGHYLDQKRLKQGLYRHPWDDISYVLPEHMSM
# Source text: The ACLY-catalyzed citric acid cleavage process requires the consumption of one molecule of ATP to activate citric acid. Based on this reaction principle, the inventors utilized an ADP-Glo assay kit to detect the amount of ATP converted to ADP in response to the catalytic activity of ACLY. After the establishment of the activity measurement system and optimization of the reaction conditions, the inventors evaluated the ACLY inhibitory activity of the obtained novel ACLY small molecule inhibitors.
# Activity test protocol: Human-derived ACLY protein was purchased from Beijing Yiqiao Shenzhou Technology Co., Ltd (Item No. 11769-H07B), and ADP-Glo assay kit was purchased from Promega (Item No. V9102). The total volume of the reaction was 5 μL, which consisted of a mixture of three parts: 1 μL of 2% DMSO, 2 μL of the substrate mixture, and 2 μL of the enzyme (final concentration of 25 nM). Then 1 μL of different concentrations of compounds were added for incubation. Reaction conditions: 30 min, 37° C. Then 2.5 μL of ADP Reagent from ADP-Glo Kit was used, mixed well and reacted for 2 h. 5 μL of ADP Detection was added, centrifuged and mixed well. Then the full wavelength value was read from Envision multifunctional plate reader.
# Results: Firstly, the cumulative amount of fluorescence intensity of the enzyme in 30 min reaction time (RFU/min) was calculated to represent the initial velocity of the enzyme, and then the ratio of the enzyme's velocity with the addition of compounds (vsample) to the enzyme's velocity without the addition of compounds (vDMSO) was calculated to be the percentage of activity for each concentration group of the samples (Activity rate %), with the formula: % Activity=(V(sample)/(v(DMSO))×100%. The logarithmic value of the concentration was plotted against the activity percentage, and then a non-linear regression was used to calculate the fitted curve. The software GraphPad Prism 8.0 (formula log (inhibitor) vs. response—Variable slope) was used to fit the curve and calculate the IC50 value, and the results are shown in the table below.
# [2] = tested on: primary mouse hepatocytes; test: Inhibition of de novo lipid synthesis in primary hepatocytes, [1,2-14C]-sodium acetate tracer; assay type: cell-based; settings: Hepatocyte, compound 12.5 μM, 4 h, [1,2-14C]-acetate, read-out: Lipid synthesis inhibition (%) (mean ± SD)
# Method: Primary hepatic cell isolation and walling: the mouse liver was lavaged by calcium-free perfusate, then digested using collagenase and mouse primary hepatocytes were obtained by density gradient centrifugation, and were inoculated in 6-well plates at a density of 3×10^5/ml (0.2% gelatin was coated before inoculating). After inoculating, the cells were cultured and adhered for 6 h. The medium was changed to serum-free LG-DMEM (containing 2× double antibody) and starved the cells overnight.
# Isotope tracing: the next day, the medium was switched to serum-free LG-DMEM containing 10 nM insulin and the corresponding concentration of compounds (1950 μL, 4 replicate wells per group); 0.1 μCi of [1,2-^14C]-acetate serum-free medium was added to each well, and the plates were then incubated for 4 h in the incubator.
# Lipid saponification: Add 1.6 mL of ice PBS to each well for washing 3 times, shake the plate to dry and add 600 μL of 0.5 M KOH to each well to lysis for 1 h. Pipette 480 μL into a glass test tube with 400 μL of 20% KOH (methanol was used as solvent), shake and mix well, and then place it in a water bath at 95° C. to saponify for 3 h. The remaining lysate was used for the determination of the concentration of proteins. Add 400 μL of petroleum ether to each tube, pipette 5-6 times and centrifuge at 2500 rpm for 5 min, take 350 μL of the upper layer of the clear solution to the EP tube, and then add 400 μL of petroleum ether to repeat the extraction for 2 times (a total of 3 times). After complete transfer of the supernatant, 200 μL of water and 400 μL of 5N sulfuric acid were added to each tube for acidification, and the mixture was shaken and mixed. Add 400 μL of petroleum ether to each tube, pipette 5-6 times and centrifuge at 2500 rpm for 5 min, take 350 μL of the upper layer of the clear solution to the EP tube, then add 400 μL of petroleum ether and repeat the extraction for 2 times (a total of 3 times). Place in a fume hood and evaporate the petroleum ether overnight.
# Isotope participation quantification: 1700 μL of scintillation solution was added to each tube and read.
# Data processing and analysis: Firstly, the isotopic reference (R control, unit: CCPM/mg protein) of free fatty acids and cholesterol was calculated for the Control group of untreated mouse primary hepatocytes within 4 hours, which represented the basal synthesis. The percent inhibition of lipid synthesis was then calculated for each concentration group of the sample.
# golden hamster = test: High-fat and high-cholesterol diet-induced hyperlipidemia model of golden hamster; assay type: in vivo; settings: for serum LDL cholesterol / serum total cholesterol: 1 time/day, 7 days, vs control group
# Source text: Dosing regimen: The hyperlipidemia model of golden hamster is recognized as one of the ideal animal models for studying hyperlipidemia drug therapy (pharmacodynamic evaluation). In order to preliminarily investigate the existence of potential regulatory effects of the candidate compounds on hepatic lipid metabolism homeostasis, the high-fat and high-cholesterol diet-induced hyperlipidemia model of golden hamster was utilized for preliminary pharmacodynamic evaluation. The specific protocol was as follows. 56 golden hamsters, males, were modeled on high-fat and high-cholesterol diet (Research diet, item number C11953) for two weeks, and 8 golden hamsters were reserved as blank control group. Subsequently, group administration (7 groups, n=8) was performed, i.e., model control group, positive control ETC-1002 30 mg/kg group, compound A3 10 mg/kg and 30 mg/kg group, compound A4 10 mg/kg and 30 mg/kg group, and blank control group. The compounds in each group were configured with saline (0.9% NaCl) and administered at a frequency of 1 time/day for a 7-day dosing cycle.
# Indicator test: The body weight and food intake of golden hamsters were closely monitored during the administration period. After 7 days of administration, blood was collected from the orbital region of each group (starved overnight for about 16 hours), centrifuged to obtain serum, and stored in cryopreservation, and then total cholesterol and LDL cholesterol were detected in the serum. The relative amount of the relevant indexes was calculated as follows: Relative amount (100%)=the amount in the administered group/the amount in the model control group*100%.
# [3] = Oral pharmacokinetics in ICR mice; assay type: in vivo, mouse; settings: male, mouse, ICR mice, oral, 30 mg/kg, plasma
# Method: Dosing regimen: 6 normal ICR mice, male, were divided into 2 groups (n=3), one group was orally given the positive control ETC-1002, and one group was orally given the tested compound A3, both administered at a dose of 30 mg/kg; blood was taken from the eye orbits at different time points before and after the administration of the drug, and the plasma drug concentration was detected.
# [4] = tested on: ACLY knockdown primary hepatocytes; test: De novo lipid synthesis in ACLY knockdown primary hepatocytes, [14C]-citric acid tracer; assay type: cell-based, mouse; settings: [14C]-citric acid substrate
# Source text: Test protocol: In order to further investigate the dependence of the inhibitory effect of the series of compounds on de novo lipid synthesis on ACLY, the inventors chose ACLY knockdown primary hepatocytes for further evaluation of de novo lipid synthesis, while compound ETC-1002 was used as a positive control. Specifically, the experimental protocol was as above, and 0.1 μCi/well [^14C]-citric acid was used for tracing.
# [5] = tested on: primary hepatocytes from WT mice; test: De novo lipid synthesis in WT primary hepatocytes, [14C]-citric acid tracer; assay type: cell-based; settings: WT mouse hepatocytes, [14C]-citric acid substrate
# [6] = golden hamster, during administration
IC50 [1],SMILES,inhibition at 12.5 µM [2],other results
42.3 ± 6.5 µM,CC(C)(CCCC/C=C/CCCCC(C)(C)C(=O)O)C(=O)O [Compound A1],–,–
105 ± 7.1 µM,CC(C)(CCCC/C=C\CCCCC(C)(C)C(=O)O)C(=O)O [Compound A2],80.9 ± 5.9%,–
16.7 ± 1.8 µM,CC(C)(CCCCC/C=C/CCCCCC(C)(C)C(=O)O)C(=O)O [Compound A5],56.6 ± 7.6%,–
25.5 ± 6.8 µM,CC(C)(CCCCC/C=C\CCCCCC(C)(C)C(=O)O)C(=O)O [Compound A6],68.7 ± 20.9%,–
12 ± 2.2 µM,CC(C)(CCCCC/C=C/CCCCCCC(C)(C)C(=O)O)C(=O)O [Compound A7],–,–
21.3 ± 9.7 µM,CC(C)(CCCCC/C=C\CCCCCCC(C)(C)C(=O)O)C(=O)O [Compound A8],21.6 ± 1.3%,–
25.8 ± 9.2 µM,CC(C)(CCCCCC/C=C/CCCCCCC(C)(C)C(=O)O)C(=O)O [Compound A9],30.9 ± 4.2%,–
9.6 ± 5.1 µM,CC(C)(CCCCCC/C=C\CCCCCCC(C)(C)C(=O)O)C(=O)O [Compound A10],21.1 ± 11.7%,–
40.2 ± 2.9 µM,C/C(CCCCCC(C)(C)C(=O)O)=C(\C)CCCCC(C)(C)C(=O)O [Compound A11],–,–
56.9 ± 4.7 µM,CC(C)(CCCCCC1CC1CCCCC(C)(C)C(=O)O)C(=O)O (stereo not shown) [Compound A12],38.7 ± 11.4%,–
–,"CC(C)(CCCCCC(O)CCCCCC(C)(C)C(=O)O)C(=O)O [ETC-1002, Bempedoic acid, reference compound]",46.3 ± 15.3%,AUC(0-inf) [3]: 15600 ng·h/mL; AUC(0-t) [3]: 14400 ng·h/mL; Cmax [3]: 3810 ng/mL; Tmax [3]: 0.25 h; half-life [3]: 4.45 h; MRT inf ([3]; read-out: MRT0-∞): 6.81 h; inhibitory effect on de novo synthesis of cholesterol [4]: significantly attenuated or even the inhibitory effect was not manifested; inhibitory effect on de novo synthesis of triglycerides [4]: significantly attenuated or even the inhibitory effect was not manifested; de novo synthesis of triglycerides ([5]; FIG. 1 A): significantly inhibited; de novo synthesis of cholesterol ([5]; FIG. 1 B): significantly inhibited

SMILES,IC50 [1],inhibition at 12.5 µM [2],other results
CC(C)(CCCC/C=C\CCCCCC(C)(C)C(=O)O)C(=O)O [Compound A4],53.9 ± 13.8 µM,78.2 ± 4.3%,serum LDL cholesterol (golden hamster; 10 mg/kg): did not change significantly; serum total cholesterol (golden hamster; 10 mg/kg): did not change significantly; serum LDL cholesterol (golden hamster; 30 mg/kg): significantly reduce; serum total cholesterol (golden hamster; 30 mg/kg): significantly reduce; body weight (golden hamster; [6]): significant decrease; food intake (golden hamster; [6]): significant decrease; tolerance observation (golden hamster; [6]): intolerance phenomena such as slowed activity
